Patent US20260103471A1, “CYCLIC UREA THIAZOLYL COMPOUNDS FOR TREATMENT OF HSV” (Assembly Biosciences, Inc., priority 2022, published 2026)

Key:
HSV-1 = HSV-1 Antiviral Assay (Vero cells, cell viability); format: cell-based; settings: Human alphaherpesvirus 1, 96 h; Vero cells, 80 TCID50 HSV-1, 4 days, cell viability; read-out: HSV-1 EC50
In short: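 Vero cells (2.5×10^3/well) received 8-point 3-fold compound dilutions in 2% FBS medium (0.5% DMSO), then 80 TCID50 HSV-1. After 4 days at 37 °C, cell viability was measured by CellTiter-Glo luminescence.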

HSV-2 G strain = experiment: HSV-2 Antiviral Assay (Vero cells, cell viability); format: cell-based; settings: Human alphaherpesvirus 2, Vero, 120 h, Vero cells, 160 TCID50 HSV-2 G strain, 5 days, cell viability
In short: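 Vero cells (1.0×10^4/well, attached overnight) given 8-point 3-fold compound dilutions (0.5% DMSO) then infected with 160 TCID50 HSV-2 G strain in 2% FBS medium for 5 days at 37 °C. Protection read as cell viability by WST-8 absorbance at 460 and 620 nm after 3 h.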

HSV = settings: long-term suppressive treatment; cited from earlier work

Row | EC50 (HSV-1) [nM] | EC50 (HSV-2 G strain) [nM] | Structure (SMILES) | reduce transmission risk (HSV) [%]
1 | < 100 | < 100 | NS(=O)(=O)c1sc(N2CCCN(c3ccc(-c4cc(F)ccc4F)cc3)C2=O)nc1CF [Compound 441, 2-(3-(2′,5′-difluoro-[1,1′-biphenyl]-4-yl)-2-oxotetrahydropyrimidin-1(2H)-yl)-4-(fluoromethyl)thiazole-5-sulfonamide] | 
2 | 1000 to 5000 | 1000 to 5000 | Cc1nc(N2CCCN([C@@H](C)c3cccc(-c4cc(F)ccc4F)c3)C2=O)sc1S(N)(=O)=O (single isomer, unassigned) [Compound 175] | 
3 | < 100 | < 100 | Cc1nc(N2CCCN(c3ccc(-c4cc(F)ccc4C4CC4)cc3)C2=O)sc1S(N)(=O)=O [Compound 22] | 
4 | < 100 | < 100 | Cc1nc(N2CCCN(c3ccc(-c4cccc5ncsc45)cc3)C2=O)sc1S(N)(=O)=O [Compound 67, 2-(3-(4-(Benzo[d]thiazol-7-yl)phenyl)-2-oxotetrahydropyrimidin-1(2H)-yl)-4-methylthiazole-5-sulfonamide] | 
5 | < 100 | < 100 | C#Cc1ccc(F)cc1-c1ccc(N2CCCN(c3nc(C)c(S(N)(=O)=O)s3)C2=O)cc1 [Compound 18] | 
6 | < 100 | < 100 | COCc1ccc(F)cc1-c1ccc(N2CCCN(c3nc(C)c(S(N)(=O)=O)s3)C2=O)cc1 [Compound 209] | 
7 | < 100 | < 100 | CNS(=O)(=O)c1sc(N2CCCN(c3ccc(-c4ccccc4F)cc3F)C2=O)nc1C [Compound 130] | 
8 | < 100 | < 100 | Cc1nc(N2CCCN(c3ccc(-c4cccc5cc(C#N)sc45)cc3)C2=O)sc1S(N)(=O)=O [Compound 274] | 
9 | 1000 to 5000 | 1000 to 5000 | Cc1nc(N2CCCN(c3ccc(-c4ncc(C(F)(F)F)s4)cc3)C2=O)sc1S(N)(=O)=O [Compound 45] | 
10 | 1000 to 5000 | 1000 to 5000 | Cc1nc(N2CCCN(c3ccc(-c4nc5ncccc5s4)cc3)C2=O)sc1S(N)(=O)=O [Compound 89] | 
11 | < 100 | < 100 | Cc1nc(N2CCCN(c3ccc(-c4cc(F)cc5c4cc(C#N)n5C)cc3)C2=O)sc1S(N)(=O)=O [Compound 293] | 
12 | 1000 to 5000 | 1000 to 5000 | Cc1nc(N2CCCN([C@H](C)c3cccc(-c4ccccc4F)c3)C2=O)sc1S(N)(=O)=O (single isomer, unassigned) [Compound 178] | 
13 | 100 to 1000 | 100 to 1000 | Cc1nc(N2CCCN(c3ccc(-c4ccccc4F)c(F)c3)C2=O)sc1S(N)(=O)=O [Compound 95] | 
14 | < 100 | < 100 | Cc1nc(N2CCCN(c3ccc(-c4ccccc4Cl)cc3)C2=O)sc1S(N)(=O)=O [Compound 9] | 
15 | < 100 | < 100 | Cc1nc(N2CCCCN(c3ccc(-c4cc(F)ccc4F)cc3)C2=O)sc1S(N)(=O)=O [Compound 101, 2-(3-(2′,5′-Difluoro-[1,1′-biphenyl]-4-yl)-2-oxo-1,3-diazepan-1-yl)-4-methylthiazole-5-sulfonamide] | 
16 | < 100 | < 100 | Cc1nc(N2CC(C)CN(c3ccc(-c4cc(F)ccc4F)cc3)C2=O)sc1S(N)(=O)=O (stereo not drawn) [Compound 318] | 
17 | < 100 | < 100 | Cc1nc(N2CCCN(c3ccc(-c4cccc5c4sc(=O)n5C)cc3)C2=O)sc1S(N)(=O)=O [Compound 79] | 
18 | < 100 | 100 to 1000 | CNS(=O)(=O)c1sc(N2CCCN(Cc3cccc(-c4cc(F)ccc4F)c3)C2=O)nc1C [Compound 181] | 

Row | EC50 (HSV-1) [nM] | EC50 (HSV-2 G strain) [nM] | Structure (SMILES) | reduce transmission risk (HSV) [%]
19 | < 100 | < 100 | Cc1nc(N2CC(C)(C)CN(c3ccc(-c4ccccc4F)cc3)C2=O)sc1S(N)(=O)=O [Compound 105] | 
20 | < 100 | < 100 | Cc1nc(N2CC(F)CN(c3ccc(-c4cc(F)ccc4F)cc3)C2=O)sc1S(N)(=O)=O (stereo not drawn) [Compound 363] | 
21 | < 100 | < 100 | Cc1nc(N2CCCN(c3ccc(-c4cc(F)cc5nsnc45)cc3)C2=O)sc1S(N)(=O)=O [Compound 259] | 
22 | < 100 | < 100 | Cc1nc2cccc(-c3ccc(N4CCCN(c5nc(C)c(S(N)(=O)=O)s5)C4=O)cc3)c2s1 [Compound 68] | 
23 | < 100 | < 100 | CNS(=O)(=O)c1sc(N2CCCN(c3ccc(-c4cc(F)ccc4F)cc3)C2=O)nc1C [Compound 116, 2-(3-(2′,5′-Difluoro-[1,1′-biphenyl]-4-yl)-2-oxotetrahydropyrimidin-1(2H)-yl)-N,4-dimethylthiazole-5-sulfonamide] | 
24 | < 100 | < 100 | Cc1nc(N2CCCN(c3ccc(-c4ccccc4F)cc3)C2=O)sc1S(C)(=O)=O [Compound 164] | 
25 | 1000 to 5000 | 1000 to 5000 | Cc1nc(N2CCCN(c3ccc(-c4cccc5nn(C(C)C)cc45)cc3)C2=O)sc1S(N)(=O)=O [Compound 59] | 
26 | < 100 | < 100 | Cc1nc(N2C[C@H](C)CN(c3ccc(-c4ccccc4Cl)cc3)C2=O)sc1S(N)(=O)=O (single isomer, unassigned) [Compound 322] | 
27 | < 100 | < 100 | Cc1nc(N2CCCN(c3ccc(-c4cc(F)cc5nnsc45)cc3)C2=O)sc1S(N)(=O)=O [Compound 243] | 
28 |  |  | CC(C)[C@H](N)C(=O)OCCOCn1cnc2c(=O)[nH]c(N)nc21 [valacyclovir] | 46
29 | < 100 | < 100 | Cc1nc(N2CCCN(Cc3cccc(-c4ccccc4)c3)C2=O)sc1S(N)(=O)=O [Compound 173] | 
30 | < 100 | < 100 | Cc1csc(-c2ccc(N3CCCN(c4nc(C)c(S(N)(=O)=O)s4)C3=O)cc2)n1 [Compound 43] | 
31 | < 100 | < 100 | Cc1nc(N2CCCN(c3ccc(-c4cc(F)cc5c4ccn5C)cc3)C2=O)sc1S(N)(=O)=O [Compound 251] | 
32 | < 100 | < 100 | CNS(=O)(=O)c1sc(N2CCCN(c3ccc(-c4ncccc4F)cc3)C2=O)nc1C [Compound 122] | 
33 | < 100 | < 100 | Cc1nc(N2CCCN(c3ccc(-c4cccc(C(F)F)c4)cc3)C2=O)sc1S(N)(=O)=O [Compound 14] | 
34 | 1000 to 5000 | 1000 to 5000 | Cc1nc(N2CCCN([C@H](C)c3cccc(-c4cc(F)ccc4F)c3)C2=O)sc1S(N)(=O)=O (single isomer, unassigned) [Compound 176] | 
35 | < 100 | < 100 | Cc1nc(N2CCCN(c3ccc(-c4ccccc4F)cc3F)C2=O)sc1S(N)(=O)=O [Compound 96] | 
